The text below walks through data of ChEMBL document CHEMBL1201862, “PubChem BioAssay data set” (2004).

Activity calls are given as the source filed them.

By IC50 is commonly meant the point on the concentration scale where inhibition reaches its midpoint. What is called EC50 is the midpoint of the concentration-response curve. The CC50 is the concentration that lowers cell viability or growth by half.

For experiment [1], the target named is Glucose-6-phosphate 1-dehydrogenase (Homo sapiens, UniProt P11413). The experiment in a line: human G6PD enzyme inhibitors, dose response, selectivity assay for P. falciparum G6PD inhibitor project, biochemical, fluorescence (AID 504792). The class given is functional.
Chain of Glucose-6-phosphate 1-dehydrogenase (P11413 whole entry): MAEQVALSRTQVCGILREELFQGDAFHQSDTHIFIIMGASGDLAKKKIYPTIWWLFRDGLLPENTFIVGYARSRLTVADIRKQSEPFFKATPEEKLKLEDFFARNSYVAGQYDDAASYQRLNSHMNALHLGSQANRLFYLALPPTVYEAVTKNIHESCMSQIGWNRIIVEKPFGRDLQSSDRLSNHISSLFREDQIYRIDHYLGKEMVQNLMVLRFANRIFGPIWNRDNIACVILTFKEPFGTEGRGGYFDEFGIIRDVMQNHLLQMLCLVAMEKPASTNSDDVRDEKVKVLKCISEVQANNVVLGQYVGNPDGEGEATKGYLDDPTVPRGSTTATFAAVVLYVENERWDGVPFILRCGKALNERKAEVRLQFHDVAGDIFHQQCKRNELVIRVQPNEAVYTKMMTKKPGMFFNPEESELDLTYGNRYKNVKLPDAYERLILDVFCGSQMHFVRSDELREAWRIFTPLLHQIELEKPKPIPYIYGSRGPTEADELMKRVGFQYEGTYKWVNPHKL
The next experiment relates to H4. The experiment in a line: Luminescence Cell-Based Dose Response HTS to Identify Activators of 5'UTR Stem-Loop Driven Prion Protein mRNA Translation in H4 Neuroglioblastoma Cells. [Related pubchem assays: 1829 (Project Summary), 1814 (Primary HTS)]. The class given is functional. The settings on record: Homo sapiens.
In experiment [2] the target is T1, Heat shock factor protein 1 (Mus musculus, UniProt P38532).
T1 sequence (P38532 whole entry): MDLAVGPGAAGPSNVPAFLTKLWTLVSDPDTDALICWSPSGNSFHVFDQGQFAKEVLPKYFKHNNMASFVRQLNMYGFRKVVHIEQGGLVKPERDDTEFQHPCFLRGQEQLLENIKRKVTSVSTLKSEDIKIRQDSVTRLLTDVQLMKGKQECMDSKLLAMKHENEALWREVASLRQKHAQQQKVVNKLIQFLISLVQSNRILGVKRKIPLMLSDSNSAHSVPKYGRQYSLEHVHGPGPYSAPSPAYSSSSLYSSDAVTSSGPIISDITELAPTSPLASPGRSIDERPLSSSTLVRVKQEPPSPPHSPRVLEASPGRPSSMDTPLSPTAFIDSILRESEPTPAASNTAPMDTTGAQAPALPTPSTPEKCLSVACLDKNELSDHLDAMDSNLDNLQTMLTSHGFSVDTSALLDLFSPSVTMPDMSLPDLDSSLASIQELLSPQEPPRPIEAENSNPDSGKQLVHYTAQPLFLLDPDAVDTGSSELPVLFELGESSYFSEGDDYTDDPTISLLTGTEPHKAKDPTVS
The experiment in a line: inhibition of MG132-induced HSE-luciferase signal, confirmation, cell-based, NIH3T3, luminescence, dose retest (AID 2382).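 Also: NIH3T3 fibroblasts with HSF1-driven luciferase reporter stressed by proteasome inhibitor MG132; luminescence from HSF1-driven luciferase expression after 8 hours of MG132 stress.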 In kind it is functional.

Experiment [3] addresses Delta-type opioid receptor (Homo sapiens, UniProt P41143). The experiment in a line: Counterscreen for agonists of heterodimerization of the mu 1 (OPRM1) and delta 1 (OPRD1) opioid receptors: Luminescence-based cell-based high throughput dose response assay to identify agonists of OPRD1 homodimerization. [Related pubchem assays (depositor defined):AID504326, AID504355, AID504692, AID504904, AID504905]. In kind it is functional. Background: Counterscreens check selectivity or assay interference.

In another experiment the target is Mu-type opioid receptor (Homo sapiens, UniProt P35372). The experiment in a line: Counterscreen for agonists of heterodimerization of the mu 1 (OPRM1) and delta 1 (OPRD1) opioid receptors: Luminescence-based cell-based high throughput dose response assay to identify agonists of OPRM1 homodimerization. The class given is functional.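 Also: U2OS cells expressing OPRM1 and beta-arrestin as split beta-galactosidase partners.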
Chain of Mu-type opioid receptor (P35372 whole entry): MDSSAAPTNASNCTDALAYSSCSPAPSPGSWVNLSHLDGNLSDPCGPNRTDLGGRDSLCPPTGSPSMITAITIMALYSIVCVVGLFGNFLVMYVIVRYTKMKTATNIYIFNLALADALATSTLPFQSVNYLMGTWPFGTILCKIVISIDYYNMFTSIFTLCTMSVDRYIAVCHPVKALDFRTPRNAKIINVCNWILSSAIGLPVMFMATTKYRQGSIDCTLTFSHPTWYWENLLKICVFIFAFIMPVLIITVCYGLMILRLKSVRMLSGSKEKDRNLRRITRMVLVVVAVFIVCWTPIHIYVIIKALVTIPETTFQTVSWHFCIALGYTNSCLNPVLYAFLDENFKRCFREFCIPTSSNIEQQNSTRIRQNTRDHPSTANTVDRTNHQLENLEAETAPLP
In experiment [4] the target is 5-hydroxytryptamine receptor 5A (Homo sapiens, UniProt P47898). Briefly: Counterscreen for agonists of OPRM1-OPRD1 heterodimerization: luminescence-based cell-based high throughput dose response assay to identify agonists of 5-hydroxytryptamine (serotonin) 5A receptor (HTR5A). [Related pubchem assays (depositor defined):AID504326, AID504355, AID504692, AID504904, AID504905]. In kind it is functional.
Chain of 5-hydroxytryptamine receptor 5A (P47898 whole entry): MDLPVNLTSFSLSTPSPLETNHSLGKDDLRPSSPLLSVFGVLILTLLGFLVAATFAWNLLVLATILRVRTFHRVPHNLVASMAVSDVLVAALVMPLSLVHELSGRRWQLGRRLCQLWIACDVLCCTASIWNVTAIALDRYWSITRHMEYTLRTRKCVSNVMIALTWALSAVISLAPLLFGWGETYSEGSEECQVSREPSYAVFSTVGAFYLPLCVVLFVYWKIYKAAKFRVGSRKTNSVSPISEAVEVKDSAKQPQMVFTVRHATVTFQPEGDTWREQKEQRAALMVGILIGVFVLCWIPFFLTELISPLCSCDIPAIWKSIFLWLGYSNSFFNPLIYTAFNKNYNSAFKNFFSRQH

Experiment [5] deals with Streptococcus sp. 'group A'. Briefly: growth inhibition of control SK(-) GAS strain, dose response, counter-screen for streptokinase expression inhibitor project, luminescence, kanamycin, BacTiterGlo, confirmation (AID 1900). The class given is functional, organism-based.
Experiment [6] relates to BJ. The experiment in a line: cytotoxicity toward BJ-TERT fibroblasts, dose response, cell-based, RAS-independent, luminescence (AID 1933). The class given is functional. The settings on record: Homo sapiens.
Experiment [7] has as its target T2, Tyrosine-protein phosphatase non-receptor type 7 (Homo sapiens, UniProt P35236).
T2 sequence (P35236 whole entry): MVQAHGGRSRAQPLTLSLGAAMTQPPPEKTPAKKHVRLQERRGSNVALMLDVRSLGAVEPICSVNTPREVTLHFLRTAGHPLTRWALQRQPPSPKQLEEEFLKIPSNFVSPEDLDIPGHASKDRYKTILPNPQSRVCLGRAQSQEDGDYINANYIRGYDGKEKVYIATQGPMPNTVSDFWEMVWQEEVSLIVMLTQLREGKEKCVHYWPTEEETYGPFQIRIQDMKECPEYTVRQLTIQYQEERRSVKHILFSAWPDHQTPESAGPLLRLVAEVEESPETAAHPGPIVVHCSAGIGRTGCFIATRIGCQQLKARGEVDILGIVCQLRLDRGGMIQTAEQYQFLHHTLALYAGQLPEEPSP
In kind it is functional.

In the next experiment the target is T3, Streptokinase A (Streptococcus pyogenes serotype M1, UniProt P10520).
T3 sequence (P10520 whole entry): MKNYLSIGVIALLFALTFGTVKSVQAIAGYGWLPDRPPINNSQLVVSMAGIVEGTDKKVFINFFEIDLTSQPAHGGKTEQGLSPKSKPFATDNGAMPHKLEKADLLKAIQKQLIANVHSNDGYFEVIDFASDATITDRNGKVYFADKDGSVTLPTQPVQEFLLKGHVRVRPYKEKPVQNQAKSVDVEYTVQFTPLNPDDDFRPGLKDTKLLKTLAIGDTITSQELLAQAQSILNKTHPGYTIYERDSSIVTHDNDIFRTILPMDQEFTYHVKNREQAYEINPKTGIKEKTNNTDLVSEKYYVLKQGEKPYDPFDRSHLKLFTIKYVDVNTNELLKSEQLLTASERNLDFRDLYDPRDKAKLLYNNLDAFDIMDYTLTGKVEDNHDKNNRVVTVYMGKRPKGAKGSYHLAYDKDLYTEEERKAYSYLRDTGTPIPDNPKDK
Briefly: S. pyogenes streptokinase expression inhibitors, potency, dose response, plasminogen activation absorbance, OD405 (AID 1914).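 Also: secreted streptokinase activity via plasminogen activation per viability signal from cell pellet.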 The class given is functional, Streptococcus pyogenes M1 GAS.

The test system of experiment [8] is BJ. Briefly: cells. The class given is functional, cell-based. The following applies: Homo sapiens.
The subject of experiment [9] is BJ. The experiment in a line: cytotoxicity toward BJ-TERT-LT-ST fibroblasts, dose response, cell-based, RAS-independent, luminescence (AID 1935).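 Also: BJ fibroblasts immortalized with TERT plus LT and ST oncogenes.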 The following applies: Homo sapiens. In kind it is functional.
The nature of experiment [10]: cytotoxicity toward DRD oncogenic fibroblasts, dose response, cell-based, non-viral oncogenic, luminescence (AID 1934). In kind it is functional. The following applies: Homo sapiens.
In another experiment the test system is Streptococcus. Briefly: Group A Streptococcus viability loss, dose response, counter-screen for streptokinase expression inhibitor project, luminescence, BacTiterGlo (AID 1915).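 Also: potency for reduction of bacterial viability or growth.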 In kind it is functional, organism-based.
The target in experiment [11] is T4, Tyrosine-protein phosphatase non-receptor type 22 (Homo sapiens, UniProt Q9Y2R2).
T4 sequence (Q9Y2R2 whole entry): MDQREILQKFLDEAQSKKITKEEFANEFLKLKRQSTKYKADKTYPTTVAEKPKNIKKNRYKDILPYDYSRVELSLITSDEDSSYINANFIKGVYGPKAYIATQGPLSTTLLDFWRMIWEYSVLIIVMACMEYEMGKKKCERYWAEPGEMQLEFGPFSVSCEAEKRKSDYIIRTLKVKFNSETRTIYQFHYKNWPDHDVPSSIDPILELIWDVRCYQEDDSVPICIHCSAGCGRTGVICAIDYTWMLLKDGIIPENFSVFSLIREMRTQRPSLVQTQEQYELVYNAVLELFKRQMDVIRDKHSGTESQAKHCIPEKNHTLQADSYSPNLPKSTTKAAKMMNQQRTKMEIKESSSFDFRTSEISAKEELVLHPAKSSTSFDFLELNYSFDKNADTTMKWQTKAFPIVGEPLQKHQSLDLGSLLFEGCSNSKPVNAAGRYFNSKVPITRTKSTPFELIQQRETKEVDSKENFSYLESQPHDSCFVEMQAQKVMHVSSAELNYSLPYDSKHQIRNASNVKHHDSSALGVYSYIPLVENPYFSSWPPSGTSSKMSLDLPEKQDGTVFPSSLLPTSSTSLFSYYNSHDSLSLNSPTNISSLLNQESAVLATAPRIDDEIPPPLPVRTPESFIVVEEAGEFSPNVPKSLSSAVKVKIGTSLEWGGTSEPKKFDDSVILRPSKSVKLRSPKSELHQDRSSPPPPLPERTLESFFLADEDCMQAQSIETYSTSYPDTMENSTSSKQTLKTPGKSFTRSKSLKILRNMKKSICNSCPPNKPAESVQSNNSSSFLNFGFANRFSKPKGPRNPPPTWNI
The class given is functional.

In experiment [12] the target is T4, Tyrosine-protein phosphatase non-receptor type 22. The class given is functional. The source holds these as a separate data set.
Another experiment deals with Vero. The experiment in a line: cells. The class given is functional. The following applies: Chlorocebus sabaeus.
Experiment [13] concerns the target T5, Mannose-6-phosphate isomerase (Homo sapiens, UniProt P34949).
T5 sequence (P34949 whole entry): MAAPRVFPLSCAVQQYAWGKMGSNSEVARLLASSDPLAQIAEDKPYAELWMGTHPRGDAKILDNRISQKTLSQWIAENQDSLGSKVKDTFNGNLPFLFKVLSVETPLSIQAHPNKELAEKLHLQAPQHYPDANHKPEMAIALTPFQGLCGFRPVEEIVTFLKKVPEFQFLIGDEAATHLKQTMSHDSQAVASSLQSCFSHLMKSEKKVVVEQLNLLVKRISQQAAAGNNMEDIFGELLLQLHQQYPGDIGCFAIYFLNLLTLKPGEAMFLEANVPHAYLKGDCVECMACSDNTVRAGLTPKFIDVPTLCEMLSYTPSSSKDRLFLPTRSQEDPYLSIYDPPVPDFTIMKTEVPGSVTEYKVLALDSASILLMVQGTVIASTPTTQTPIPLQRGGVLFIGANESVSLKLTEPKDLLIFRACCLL
Briefly: human PMI inhibitors, high substrate, primary screen, biochemical, fluorescence intensity, high mannose 6-phosphate (AID 1220).

For another experiment, the target named is T6, Protein Tat (Human immunodeficiency virus type 1 group M subtype B (isolate HXB2)(HIV-1), UniProt P04608).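 Also: tat binding to TAR RNA read out by fluorescence polarization.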
T6 sequence (P04608 whole entry): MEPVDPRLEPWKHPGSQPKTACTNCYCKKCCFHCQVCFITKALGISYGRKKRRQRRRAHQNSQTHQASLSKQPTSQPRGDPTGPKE
The class given is functional.

Experiment [14] is described as follows: THP-1 cell cytotoxicity, dose response, cytotoxicity control for Vif-APOBEC3G degradation inhibitor project, THP-1 cells (AID 1117359). The settings on record: Human immunodeficiency virus 1, THP-1. In kind it is functional.

Chain of Delta-type opioid receptor (P41143 whole entry): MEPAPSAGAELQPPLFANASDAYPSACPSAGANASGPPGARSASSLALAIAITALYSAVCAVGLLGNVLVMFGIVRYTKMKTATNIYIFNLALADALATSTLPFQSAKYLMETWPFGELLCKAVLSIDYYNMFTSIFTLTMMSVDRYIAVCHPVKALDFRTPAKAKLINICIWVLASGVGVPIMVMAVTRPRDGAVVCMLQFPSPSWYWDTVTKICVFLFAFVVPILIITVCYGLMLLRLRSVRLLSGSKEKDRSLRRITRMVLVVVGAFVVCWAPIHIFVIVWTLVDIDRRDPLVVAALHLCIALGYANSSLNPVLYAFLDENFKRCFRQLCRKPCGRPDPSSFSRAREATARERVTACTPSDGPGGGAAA

As for `O=C(COC(=O)c1cnccn1)c1ccc([N+](=O)[O-])cc1`, the IC50 in experiment [1] is > 80 µM (inactive).

`Cc1cc(/C=C2/C(=O)NN(c3ccccc3)C2=O)c(C)n1-c1ccc(O)cc1`: the concentration for a half-maximal effect (EC50) in the experiment on H4 was < 0.1 µM (active); in [2] it was 4.81 µM (active); in experiment [3], 9.3 µM (active); at Mu-type opioid receptor it was > 92.5 µM (inactive); in [4], > 92.5 µM (inactive).

For `O=C(N/N=C/c1ccccn1)c1ccc(Cl)c(Cl)c1`, the half-maximal effective concentration (EC50) in [5] was 6.21 µM (active); with BJ [6], 21.6 µM (active); on Streptokinase A, > 150 µM (not active); in the experiment with BJ [8], > 150 µM (not active); in the experiment with BJ [9] it was > 150 µM (not active); in [10], > 150 µM (not active). Also, the EC50 with Streptococcus is 22.9 µM (active). Also, the IC50 in experiment [7], in experiment [11] and in experiment [12] was > 79.4 µM (inactive) in each case. Besides, in the experiment with Vero, the CC50 was > 25 µM (active).

`COc1ccc(CN(C)S(=O)(=O)c2nnc(NC(=O)c3cccc(C)c3)s2)cc1OC`: in [1], the IC50 was 61.2 µM (inactive).

With `CC1[C@H]2Cc3ccc(O)cc3[C@]1(C)CCN2C` (stereo not given in full), the EC50 (in experiment [3]; on Mu-type opioid receptor; in [4]) was > 92.4 µM (inactive) each time.

For the compound `CCOc1ccc(CNc2ccc(N3CCCC3)cc2)cc1`, the figures for the IC50 (in experiment [13]; in [1]; on Protein Tat) were > 50 µM (not active), > 80 µM (inactive) and 75.3 µM (inconclusive), respectively. Moreover, the CC50 in [14] was > 40 µM (active).
